Assay results reported in ChEMBL document CHEMBL3627688, “Structure-based hybridization, synthesis and biological evaluation of novel tetracyclic heterocyclic azathioxanthone analogues as potential antitumor agents” (Eur J Med Chem, 2015).

How the values were obtained:
U-251 = test: Growth inhibition of human U251 cells assessed as cell growth at 10 uM incubated for 48 hrs by sulforhodamine B assay; assay type: functional; details: U-251, 48 h, read-out: Activity
[1] = Growth inhibition of human SF295 cells assessed as cell growth at 10 uM incubated for 48 hrs by sulforhodamine B assay; assay type: functional; details: SF-295, 48 h, read-out: Activity
HT-29 = test: Growth inhibition of human HT-29 cells assessed as cell growth at 10 uM incubated for 48 hrs by sulforhodamine B assay; assay type: functional; details: HT-29, 48 h, read-out: Activity
HCT-15 = test: Growth inhibition of human HCT15 cells assessed as cell growth at 10 uM incubated for 48 hrs by sulforhodamine B assay; assay type: functional; details: HCT-15, 48 h, read-out: Activity
[2] = Growth inhibition of human HCC2998 cells assessed as cell growth at 10 uM incubated for 48 hrs by sulforhodamine B assay; assay type: functional; details: HCC 2998, 48 h, read-out: Activity
NCI-H522 = test: Growth inhibition of human NCI-H522 cells assessed as cell growth at 10 uM incubated for 48 hrs by sulforhodamine B assay; assay type: functional; details: NCI-H522, 48 h, read-out: Activity
NCI-H322M = test: Growth inhibition of human NCI-H322M cells assessed as cell growth at 10 uM incubated for 48 hrs by sulforhodamine B assay; assay type: functional; details: read-out: Activity
NCI-H226 = test: Growth inhibition of human NCI-H226 cells assessed as cell growth at 10 uM incubated for 48 hrs by sulforhodamine B assay; assay type: functional; details: NCI-H226, 48 h, read-out: Activity
HOP-62 = test: Growth inhibition of human HOP62 cells assessed as cell growth at 10 uM incubated for 48 hrs by sulforhodamine B assay; assay type: functional; details: HOP-62, 48 h, read-out: Activity
[3] = Growth inhibition of human RPMI8226 cells assessed as cell growth at 10 uM incubated for 48 hrs by sulforhodamine B assay; assay type: functional; details: RPMI-8226, 48 h, read-out: Activity
K562 = test: Growth inhibition of human K562 cells assessed as cell growth at 10 uM incubated for 48 hrs by sulforhodamine B assay; assay type: functional; details: K562, 48 h, read-out: Activity
HL-60(TB) = test: Growth inhibition of human HL-60(TB) cells assessed as cell growth at 10 uM incubated for 48 hrs by sulforhodamine B assay; assay type: functional; details: HL-60, 48 h, read-out: Activity
SK-MEL-5 = test: Growth inhibition of human SK-MEL-5 cells assessed as cell growth at 10 uM incubated for 48 hrs by sulforhodamine B assay; assay type: functional; details: SK-MEL-5, 48 h, read-out: Activity
IGROV-1 = test: Growth inhibition of human IGROV1 cells assessed as cell growth at 10 uM incubated for 48 hrs by sulforhodamine B assay; assay type: functional; details: IGROV-1, 48 h, read-out: Activity
OVCAR-3 = test: Growth inhibition of human OVCAR3 cells assessed as cell growth at 10 uM incubated for 48 hrs by sulforhodamine B assay; assay type: functional; details: OVCAR-3, 48 h, read-out: Activity
OVCAR-4 = test: Growth inhibition of human OVCAR4 cells assessed as cell growth at 10 uM incubated for 48 hrs by sulforhodamine B assay; assay type: functional; details: OVCAR-4, 48 h, read-out: Activity
OVCAR-8 = test: Growth inhibition of human OVCAR8 cells assessed as cell growth at 10 uM incubated for 48 hrs by sulforhodamine B assay; assay type: functional; details: OVCAR-8, 48 h, read-out: Activity
SK-OV-3 = test: Growth inhibition of human SKOV3 cells assessed as cell growth at 10 uM incubated for 48 hrs by sulforhodamine B assay; assay type: functional; details: SK-OV-3, 48 h, read-out: Activity
786-0 = test: Growth inhibition of human 786-0 cells assessed as cell growth at 10 uM incubated for 48 hrs by sulforhodamine B assay; assay type: functional; details: 786-0, 48 h, read-out: Activity
A498 = test: Growth inhibition of human A498 cells assessed as cell growth at 10 uM incubated for 48 hrs by sulforhodamine B assay; assay type: functional; details: A498, 48 h, read-out: Activity
SN12C = test: Growth inhibition of human SN12C cells assessed as cell growth at 10 uM incubated for 48 hrs by sulforhodamine B assay; assay type: functional; details: read-out: Activity
TK-10 = test: Growth inhibition of human TK10 cells assessed as cell growth at 10 uM incubated for 48 hrs by sulforhodamine B assay; assay type: functional; details: TK-10, 48 h, read-out: Activity
MCF7 = test: Growth inhibition of human MCF7 cells assessed as cell growth at 10 uM incubated for 48 hrs by sulforhodamine B assay; assay type: functional; details: MCF7, 48 h, read-out: Activity
T47D = test: Growth inhibition of human T47D cells assessed as cell growth at 10 uM incubated for 48 hrs by sulforhodamine B assay; assay type: functional; details: read-out: Activity
MDA-MB-468 = test: Growth inhibition of human MDA-MB-468 cells assessed as cell growth at 10 uM incubated for 48 hrs by sulforhodamine B assay; assay type: functional; details: MDA-MB-468, 48 h, read-out: Activity
DU-145 = test: Antiproliferative activity against human DU145 cells assessed as cell viability incubated for 72 hrs by MTT assay; assay type: functional, cell-based; details: DU-145, 72 h
[4] = Growth inhibition of human EKVX cells assessed as cell growth at 10 uM incubated for 48 hrs by sulforhodamine B assay; assay type: functional; details: read-out: Activity

## O=c1c2ccc(Cl)cc2sc2c(Cl)nc3ccccc3c12
U-251
  growth at 10 µM: 102%
[1]
  growth at 10 µM: 90.3%
HT-29
  growth at 10 µM: 99.7%
HCT-15
  growth at 10 µM: 102%
[2]
  growth at 10 µM: 123%
NCI-H522
  growth at 10 µM: 96.8%
NCI-H322M
  growth at 10 µM: 100%
NCI-H226
  growth at 10 µM: 83.4%
HOP-62
  growth at 10 µM: 82%
[3]
  growth at 10 µM: 100%
K562
  growth at 10 µM: 101%
HL-60(TB)
  growth at 10 µM: 99.3%
SK-MEL-5
  growth at 10 µM: 97.4%
IGROV-1
  growth at 10 µM: 96.1%
OVCAR-3
  growth at 10 µM: 111%
OVCAR-4
  growth at 10 µM: 87.9%
OVCAR-8
  growth at 10 µM: 102%
SK-OV-3
  growth at 10 µM: 101%
786-0
  growth at 10 µM: 105%
A498
  growth at 10 µM: 106%
SN12C
  growth at 10 µM: 95.9%
TK-10
  growth at 10 µM: 109%
MCF7
  growth at 10 µM: 82.6%
T47D
  growth at 10 µM: 110%
MDA-MB-468
  growth at 10 µM: 98.6%
DU-145
  IC50: > 15 µM

## O=C(O)c1c(Sc2ccc(Cl)cc2)c(O)nc2ccccc12
U-251
  growth at 10 µM: 99.6%
[1]
  growth at 10 µM: 99%
HT-29
  growth at 10 µM: 101%
HCT-15
  growth at 10 µM: 108%
[2]
  growth at 10 µM: 101%
NCI-H522
  growth at 10 µM: 81.6%
NCI-H322M
  growth at 10 µM: 101%
NCI-H226
  growth at 10 µM: 106%
HOP-62
  growth at 10 µM: 116%
[4]
  growth at 10 µM: 89.5%
[3]
  growth at 10 µM: 98.1%
K562
  growth at 10 µM: 112%
HL-60(TB)
  growth at 10 µM: 106%
SK-MEL-5
  growth at 10 µM: 98.1%
IGROV-1
  growth at 10 µM: 104%
OVCAR-3
  growth at 10 µM: 121%
OVCAR-4
  growth at 10 µM: 98.4%
OVCAR-8
  growth at 10 µM: 115%
786-0
  growth at 10 µM: 104%
SN12C
  growth at 10 µM: 95.8%
TK-10
  growth at 10 µM: 118%
MCF7
  growth at 10 µM: 92%
T47D
  growth at 10 µM: 99.6%
MDA-MB-468
  growth at 10 µM: 105%
DU-145
  IC50: > 15 µM
